The results in this text go back to patent US20060079453A1, “Hla binding peptides and their uses” (priority 2002, published 2006).

Like-named read-outs stand apart in the source and are kept apart here. No end group written: not given here. A value given as a limit tells only on which side of the number the result lay.

Common to all, as to assay: biochemical
Holding throughout (format): binding

Experiment [1] has as its target HLA-DR DRB1*1101 (DR11) (Homo sapiens, UniProt P01903+P01911, A100R/A169T/A87E/I96F/K41T/L162R/M171V/P40S/Q125H/Q178H/Q39Y/Q99D/R42S/S66Y/T262R/V115G/W38E). Conditions: DRB1 *1101.
Experiment [2] has as its target HLA-DR DRB1*0301 (DR3) (Homo sapiens, UniProt P01903+P01911, A100K/A102G/A103R/A169T/F55Y/I96L/K41T/L162R/M171V/P40S/Q125H/Q178H/Q39Y/R42S/S66N/T106N/T262R/W38E/Y61H).
Experiment [3] has as its target HLA-DR DRB1*0405 (DR4) (Homo sapiens, UniProt P01903+P01911, A100R/A169T/D86S/F76Y/I96L/K127E/L162R/M171V/N62H/P40V/Q125Y/R42H/S133A/S149N/S66Y/V115G/V209L/W38E). The note with it: DRB1 *0405.
The target in experiment [4] is HLA-DR DRB5*0101 (DR51) (Homo sapiens, UniProt P01903+Q30154). The note with it: DRB5 *0101.
For experiment [5], the target named is HLA-DR DRB1*0701 (DR7) (Homo sapiens, UniProt P01903+P01911, A100R/A102G/A103Q/D57E/D86V/E43K/F76Y/K127E/L162R/M171V/P40G/Q125H/Q99D/R33Q/R42Y/R54Q/S133A/S66F/T210M/V115G/Y107V/Y59L/Y89S). The note with it: DRB1 *0701.
Experiment [6] deals with HLA-DR DRB1*0401 (DR4) (Homo sapiens, UniProt P01903+P01911, A100K/A169T/F76Y/I96L/K127E/L162R/M171V/N62H/P40V/Q125Y/R42H/S133A/S149N/S66Y/V115G/V209L/W38E). The note with it: DRB1 *0401.
Experiment [7] addresses HLA-DR DRB1*1302 (DR13) (Homo sapiens, UniProt P01903+P01911, A100E/A169T/K41T/L162R/M171V/P40S/Q125H/Q178H/Q39Y/Q99D/R42S/S66N/T262R/V115G/W38E/Y61H). Conditions: DRBI *1302.
The target in experiment [8] is HLA-DR DRB1*1501 (DR15) (Homo sapiens, UniProt P01903+P01911).
Experiment [9] has as its target HLA-DR DRB1*0901 (DR9) (Homo sapiens, UniProt P01903+P01911, A100R/A103E/D57H/D86V/F55Y/F60I/F76Y/I96F/K127E/L162R/M171V/P40D/Q125H/Q99R/R33Q/R42F/S133A/S66N/T210M/V115G/W38K/Y107V/Y59G/Y89S). The note with it: DRB1 *0901.
The target of experiment [10] is HLA-DR DRB1*0101 (DR1) (Homo sapiens, UniProt P01903+P01911, A100R/D57E/F55L/F60I/F76Y/I96L/L162R/M171V/P40L/Q125E/R42F/V115G/Y59C). Conditions: DRB1 *0101.
In experiment [11] the target is HLA-DR DRB4*0101 (DR53) (Homo sapiens, UniProt P01903+P13762, G164S).

HLA-DR DRB1*1302 (DR13), sequence (P01903 26-254 limits assumed, other chains not shown): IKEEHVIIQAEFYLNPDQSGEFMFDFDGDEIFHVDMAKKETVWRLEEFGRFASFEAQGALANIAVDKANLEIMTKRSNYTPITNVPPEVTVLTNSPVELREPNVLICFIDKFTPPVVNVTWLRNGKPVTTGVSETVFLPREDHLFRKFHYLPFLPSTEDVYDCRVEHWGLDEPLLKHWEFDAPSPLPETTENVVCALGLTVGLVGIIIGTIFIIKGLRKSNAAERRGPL
HLA-DR DRB1*0301 (DR3), sequence (P01903 26-254 limits assumed, other chains not shown): as above
HLA-DR DRB1*1101 (DR11), sequence (P01903 26-254 limits assumed, other chains not shown): as above

The IC50 is the concentration needed to halve the response being measured. Higher therefore signals a need for much substance. As to RVIKNSIRLTL, the IC50 came out at 1740 nM in experiment [1]; 584 nM in [2]; 80700 nM in [3]; 8830 nM in experiment [4]; 2240 nM in [5]; 9250 nM in experiment [6]. Further, the IC50 in experiment [7] was 32 nM; in experiment [8] (DRBI *1501) it was 4320 nM; in experiment [9] it was 2570 nM; in experiment [10], 3650 nM.

For FVVYRDSIPHAACHK, the IC50 in experiment [2] was 200 nM; in experiment [3] it was 704 nM; in experiment [4], 2340 nM; in [6], 10 nM; in [7], 1850 nM; in experiment [8] (DRBI *1501), 349 nM. The IC50 in experiment [9] amounted to 2120 nM; in experiment [10] it was 587 nM; in experiment [11] (DRB4 *0101), 18100 nM.

Take WYRYSVYGTTLEKLT: the 50% inhibitory concentration (IC50) was 26600 nM in [2]; 8.5 nM in experiment [3]; 62 nM in [4]; 107 nM in [5]; 249 nM in [6]; 805 nM in [7]. The IC50 in [8] (DRBI *1501) was 421 nM; in [9] it was 284 nM; in [10] it was 163 nM; in [11] (DRB4 *0101), 1040 nM.

Turning to `CC[C@H](C)[C@H](NC(=O)[C@H](Cc1ccc(O)cc1)NC(=O)[C@@H]1CCCN1C(=O)[C@H](CC(=O)O)NC(=O)[C@H](CCC(=O)O)NC(=O)[C@H](CC(C)C)NC(=O)[C@@H](NC(=O)[C@H](C)NC(=O)[C@@H](N)CCC(=O)O)C(C)C)C(=O)N[C@@H](CC(C)C)C(=O)N[C@@H](CC(C)C)C(=O)N[C@H](C(=O)N[C@@H](CO)C(=O)N[C@@H](CO)C(=O)N[C@@H](CCCCN)C(=O)O)C(C)C`, the half-maximal inhibitory concentration (IC50) in experiment [1] was 4380 nM; in [2], 479 nM; in experiment [3], 681 nM; in [6] it was 233 nM; in experiment [7], over 10300 nM; in experiment [8], over 50800 nM. For the same molecule, the results for the IC50 in experiment [9], in [10] and in experiment [11] were 15000 nM, 34 nM and over 26400 nM, respectively.

On to LQQLFLSTLSFVCPW, for which the IC50 came out at 11700 nM in [1]; 2040 nM in experiment [2]; 94 nM in [3]; 36900 nM in experiment [4]; 272 nM in experiment [5]; 152 nM in [9]. Moreover, the concentration for half-maximal inhibition (IC50) in [10] worked out at 121 nM; in experiment [11] (DRB4 *0101), 22 nM.

Turning to GEALSTLVLNRLKVG, the IC50 was 79 nM in experiment [1]; 11800 nM in [2]; 14800 nM in [3]; 46 nM in experiment [4]; 3190 nM in experiment [5]; 3050 nM in [6]. The IC50 in experiment [7] worked out at 29 nM; in experiment [9], 20200 nM; in experiment [10], 719 nM; in [11] (DRB4 *0101), 1020 nM.

Regarding LRVVQQLLMGALTVT, the IC50 in [2] worked out at 21700 nM; in experiment [3], 85 nM; in experiment [5] it was 82 nM; in experiment [7], 8.9 nM; in experiment [8] (DRBI *1501) it was 56 nM; in experiment [9], 204 nM. Besides, the values for the IC50 in experiment [10] and in [11] (DRB4 *0101) were 5.7 nM and 7.7 nM, respectively.

For VCLLFYSKVRKYRYY, the IC50 in [1] stood at 326 nM; in experiment [2], 276 nM; in experiment [3], 73 nM; in experiment [5], 258 nM; in [8] (DRBI *1501) it was 61 nM; in [9], 1800 nM. Besides, the IC50 came out at 960 nM in [10] and 2340 nM in experiment [11] (DRB4 *0101).
